“Also recorded” adds a separate entry of the source.
What was measured:
Raji lymphoma cells [1] = test: Raji orthotopic murine CNS lymphoma model; type: in vivo, athymic mice; conditions: 1, 2.5 or 5 mg/kg i.p. for four days; vs vehicle control
Protocol: Athymic mice (nu/nu; 8-10 weeks old) were anesthetized with gasiform isofluorane and 25,000 Raji cells transfected with luciferase (as described in in vitro study) were stereotactically injected into the left cerebral hemisphere at coordinates (AP: 0.5 mm, LM: 2.5 mm, DV: 3 mm) from the bregma and skull at a volume of 5 μl and at a rate of 1 μl/min. The needle was left in place for 5 min after injection.
BLI was conducted using a Xenogen Lumina optical imaging system (Caliper Life Sciences, Hopkinton, Mass.). Mice were anesthetized with isofluorane before intraperitoneal injections of luciferin at a dose of 150 mg/kg, providing a saturating substrate concentration for luciferase enzyme. Peak luminescent signals were recorded 10 minutes after luciferin injection. Regions of interest encompassing the intracranial area of signal were defined using Living Image software, and the total photons/s/steradian/cm^2 was recorded.
Raji murine CNS lymphoma model was created as described in in vivo study section. After bioluminesence imaging (BLI) scanning on day 4 post intracerebral injection, animals were randomly assigned to four different groups. […] […] BLI was used for real time monitoring of tumor growth. Differences in tumor growth were statistically analyzed by ANOVA.

Raji lymphoma cells [2] = test: Cell proliferation assay, Raji lymphoma cells (Example 3); type: cell-based; conditions: 100, 500, or 1,000 nM; counted on the third day; vs vehicle
Protocol: Raji cells were purchased from American Tissue Culture (Manassas, Va.). […] Raji cells infected with lentivirus constructs were grown in selection media containing 2.5 μg/ml puromycin. For experiments, unless specified otherwise, all cells were switched back to maintenance media.
Two-tailed student T-test was used to analyze significant difference.

osteopontin = test: Osteopontin secretion ELISA in Raji cells; type: cell-based, human; conditions: culture medium, four days
Protocol: 10^5 Raji lymphoma cells were seeded in 5 ml media in 6-well plates in triplicate and were grown for four days. Cells were pelleted and the media was collected for analysis. Duplicate four hundred microliters of media supernatant were assayed for osteopontin by ELISA using Quantikine human osteopontin ELISA kit (R&D Systems, Inc., Minneapolis, Minn.). Statistical analysis was performed using two-tailed Student's T-Test.

[3] = CNS pharmacokinetic study in mice (microdialysis, CE-UV); type: in vivo, C57BL/6J mice; conditions: 2.5 mg/kg i.p.
Protocol: The total of 90 male wild type C57BL/6J mice were used in this study. C57BL/6J mice were approximately 2 months of age and weighed 20˜25 g. All mice were housed in a temperature-controlled room ([…]) with a 12:12 light dark cycle (lights on at 0600). Purina 5001 Rodent Chow and tap water were available ad libitum at all times. Mouse use was approved by Mayo Foundation Institutional Animal Use and Care Committee (IACUC) and was consistent with NIH Guide for the Care and Use of Laboratory Animals. Agelastatin A was synthesized by Professor Takehiko Yoshimitsu at Graduate School of Pharmaceutical Sciences, Osaka University, Osaka, Japan. Professor Yoshimitsu has described details on the synthesis of this compound. Purity as determined by NMR spectra is >99%.
A total of five mice were used in microdialysis experiments. On the day of surgery, mice were anesthetized with gasiform isoflurane (1% isoflurane in a mixture of 20% oxygen and 80% nitrogen gas) and immobilized in a stereotaxic frame (KOPF Instruments, Tujunga, Calif.). […]
Briefly, the capillaries were preconditioned with 1 M sodium hydroxide for 2 min, water for 2 min and running buffer [100 mmol/1 solution of ammonium acetate (adjusted to pH 3.1 with acetic acid)-acetonitrile (50:50, v/v)] for 3 min. […] CNS penetration was determined as the ratio of CSF and blood area under the curve (AUC).

osteopontin mRNA = test: Osteopontin mRNA real-time PCR; type: cell-based; conditions: at 12 h; normalized to GAPDH
Protocol: B lymphoma cells were grown at 1×10^6 cells in complete media. Cells were harvested by centrifugation, and total RNA was extracted by Trizol and PureLink kit as described by the manufacturer (Invitrogen: Carlsbad, Calif.). Residual genomic DNA contamination was removed by DNA-Free kit (Applied Biosystems: Carlsbad, Calif.). Total RNA was converted to cDNA using the High Capacity Reverse Transciption kit (Applied Biosystems: Carlsbad, Calif.) and diluted to 4 ng/μl RNA with nuclease-free water.
Ct values were determined by instrument software and relative osteopontin mRNA values were normalized to GAPDH. Significant difference of Ct values was determined using a two-tailed Student's T-test.

With `CN1C(=O)N[C@H]2[C@@H]3NC(=O)c4ccc(Br)n4[C@@H]3C[C@]21O` [AA, agelastatin A, reference compound] the “CNS lymphoma tumor growth (BLI)” value (Raji lymphoma cells [1]) was “significantly decreased the tumor growth; also recorded: therapeutic effect of AA treatment on the CNS lymphoma growth”, the “survival (Kaplan-Meier)” value (Raji lymphoma cells [1]) was “significantly prolonged the survival; also recorded: survival prolongation” and the “Raji lymphoma cell proliferation” value (Raji lymphoma cells [2]) was “significantly suppressed proliferation; also recorded: decreases Raji lymphoma cell proliferation”. For the same molecule, the “OPN secretion by Raji cells (ELISA)” value (osteopontin) was “significantly decreased secretion of osteopontin; also recorded: decreases OPN secretion”, the “penetration into brain and eye tissue compartments” value [3] was “shown to penetrate into the brain and eye tissue compartments; also recorded: can penetrate the brain and eye tissue compartments” and the “expression of OPN messenger RNA (PCR)” value (osteopontin mRNA) was “transcriptionally downregulating osteopontin; also recorded: decreases the expression of OPN messenger RNA”.

— patent US9464093B2, “Substituted imidazo[4',5':4,5]cyclopenta[1,2-e]pyrrolo[1,2-a]pyrazines and oxazolo[4',5':4,5]cyclopenta[1,2-e]pyrrolo[1,2-a]pyrazines for treating brain cancer” (Mayo Foundation for Medical Education and Research, priority 2012, dated 2016)
